# Results taken from BindingDB's records for doi:10.7270/Q2057DDB (Nmmlsc, 2011).
# Target: T1, Vacuolar aminopeptidase 1 (Saccharomyces cerevisiae (strain ATCC 204508 / S288c), UniProt P14904)
# T1 sequence (P14904 whole entry): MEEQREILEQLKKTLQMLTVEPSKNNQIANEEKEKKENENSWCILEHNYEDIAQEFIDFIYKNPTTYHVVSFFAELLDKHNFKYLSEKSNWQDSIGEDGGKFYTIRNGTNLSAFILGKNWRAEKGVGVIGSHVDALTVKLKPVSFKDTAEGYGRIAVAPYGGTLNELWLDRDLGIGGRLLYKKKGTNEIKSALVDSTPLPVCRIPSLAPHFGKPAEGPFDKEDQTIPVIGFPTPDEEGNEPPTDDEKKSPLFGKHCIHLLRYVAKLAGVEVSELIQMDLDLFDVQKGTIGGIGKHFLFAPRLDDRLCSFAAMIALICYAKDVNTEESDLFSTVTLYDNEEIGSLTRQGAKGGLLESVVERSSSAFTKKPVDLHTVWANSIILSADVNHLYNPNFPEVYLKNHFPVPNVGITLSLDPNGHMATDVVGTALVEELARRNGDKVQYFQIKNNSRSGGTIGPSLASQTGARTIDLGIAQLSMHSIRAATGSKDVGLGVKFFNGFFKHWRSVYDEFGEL
# Experiment: yeast LAP4 reporter analogs, concentration series – cell-based, cherry pick 3, flow cytometry, SAR follow-up (AID 488823)
# Conditions: not given
row,EC50,SMILES
1,35.4 µM,"NC(=O)c1ccnc2c(O)cccc12 [8-hydroxyquinoline-4-carboxamide;2,2,2-trifluoroacetic acid]"

# Same assay, conditions: inactive by the depositor's call
row,EC50,SMILES
1,86.4 µM,COc1cccc2c(Cl)c(CCCl)c(C)nc12 [MLS000720591]
2,37.3 µM,"CCC(C)Nc1nc(N)c([N+](=O)[O-])c(Nc2cc(OC)ccc2OC)n1 (stereo not drawn) [N2-butan-2-yl-N4-(2,5-dimethoxyphenyl)-5-nitro-pyrimidine-2,4,6-triamine]"
3,105 µM,CCc1sc(C(=O)Nc2nc(-c3ccccn3)cs2)cc1C [SMR001314827]
4,79.6 µM,Cn1cccc1C(=O)Nc1nc(-c2ccccn2)cs1 [SMR000064459]
5,208 µM,Oc1ccc(Cl)c2cccnc12 [MLS002695956]
6,35.9 µM,CCC(C)Nc1nc(N)c([N+](=O)[O-])c(Nc2ccccc2OC)n1 (stereo not drawn) [SMR000434817]
7,41.2 µM,CCOC(=O)CS(=O)(=O)c1nc(-c2ccccc2)cc(C(F)(F)F)n1 [2-[4-phenyl-6-(trifluoromethyl)pyrimidin-2-yl]sulfonylacetic acid ethyl ester]
